Test results taken from patent publication US20070117743A1, “New antitumoral compounds” (priority 2003, published 2007).
Where two headings read alike, the source gives them in different places.

Experiments:
Format in all cases: cell-based, human
SK-BR-3 = assay: SRB colorimetric assay of cell growth and viability, SK-BR-3; conditions: 48 hours exposure
K-562 = assay: SRB colorimetric assay of cell growth and viability, K-562; conditions: 48 hours exposure; for CC50: read-out: LC50 K-562
IGROV-1 = assay: SRB colorimetric assay of cell growth and viability, IGROV-1; conditions: 48 hours exposure
DU-145 = assay: SRB colorimetric assay of cell growth and viability, DU-145; conditions: 48 hours exposure
HeLa-APL = assay: SRB colorimetric assay of cell growth and viability, HeLa-APL; conditions: 48 hours exposure; for CC50: read-out: LC50 HELA-APL
A-549 = assay: SRB colorimetric assay of cell growth and viability, A-549; conditions: 48 hours exposure; for GI50: read-out: GI50 A-549; for CC50: read-out: LC50 A-549
HeLa = assay: SRB colorimetric assay of cell growth and viability, HeLa; conditions: 48 hours exposure; for CC50: read-out: LC50 HELA
HT-29 = assay: SRB colorimetric assay of cell growth and viability, HT-29; conditions: 48 hours exposure; for GI50: read-out: GI50 HT-29; for CC50: read-out: LC50 HT-29
LNCaP = assay: SRB colorimetric assay of cell growth and viability, LNCaP; conditions: 48 hours exposure; for CC50: read-out: LC50 LN-caP
IGROV-ET = assay: SRB colorimetric assay of cell growth and viability, IGROV-ET; conditions: 48 hours exposure; for CC50: read-out: LC50 IGROV-ET
LoVo = assay: SRB colorimetric assay of cell growth and viability, LoVo; conditions: 48 hours exposure; for CC50: read-out: LC50 LOVO
SK-MEL-28 = assay: SRB colorimetric assay of cell growth and viability, SK-MEL-28; conditions: 48 hours exposure; for CC50: read-out: LC50 MEL-28
PANC-1 = assay: SRB colorimetric assay of cell growth and viability, PANC-1; conditions: 48 hours exposure; for CC50: read-out: LC50 PANC-1
LoVo-Dox = assay: SRB colorimetric assay of cell growth and viability, LoVo-Dox; conditions: 48 hours exposure; for CC50: read-out: LC50 LOVO-DOX
Outline: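 Sulforhodamine B assay run after 48 h of continuous drug contact; cells seeded 5×10^3/well in RPMI 1640 10% FBS, attached 18 h. Triplicate OD490 values give cytostatic (TGI), cytotoxic (LC) and GI parameters.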

C/C=C1\NC(=O)[C@H](Cc2ccccc2Cl)NC(=O)[C@@H](C(C)C)NC(=O)[C@@H]([C@@H](C)CC)NC(=O)[C@H](NC(=O)[C@H](NC(=O)[C@H](CCCN)NC(=O)[C@H]2CCCN2C(=O)[C@H](NC(=O)[C@@H](NC(=O)[C@@H](NC(=O)[C@H](NC(=O)CCCC(C)C)C(C)C)[C@@H](C)O)C(C)C)C(C)C)[C@@H](C)CC)[C@@H](C)OC(=O)[C@H](C(C)C)NC1=O [Compound 81, [Phe(2-Cl)^3]-KF]
GI50 (SK-BR-3; SK-BR-3): 61.2 nM
LC50 (SK-BR-3; SK-BR-3): 664 nM
TGI SK-BR-3 (SK-BR-3; SK-BR-3): 1.18E−07 Molar
GI50 (K-562; K-562): 1840 nM
TGI K-562 (K-562; K-562): 1.84E−06 Molar
CC50 (K-562; K-562): 1840 nM
GI50 (IGROV-1; IGROV): 86.7 nM
LC50 (concentration causing 50% net cell killing) (IGROV-1; IGROV): 596 nM
TGI IGROV (IGROV-1; IGROV): 2.09E−07 Molar
GI50 (DU-145; DU-145): 242 nM
LC50 (concentration causing 50% net cell kill) (DU-145; DU-145): 1210 nM
TGI DU-145 (DU-145; DU-145): 6.83E−07 Molar
GI50 (HeLa-APL; HELA-APL): 342 nM
TGI HELA-APL (HeLa-APL; HELA-APL): 7.87E−07 Molar
CC50 (HeLa-APL; HELA-APL): 1840 nM
TGI A-549 (A-549; A-549): 9.04E−07 Molar
GI50 (A-549; A-549): 457 nM
CC50 (A-549; A-549): 1570 nM
GI50 (HeLa; HELA): 199 nM
TGI HELA (HeLa; HELA): 6.33E−07 Molar
CC50 (HeLa; HELA): 1440 nM
TGI HT-29 (HT-29; HT-29): 2.23E−07 Molar
GI50 (HT-29; HT-29): 102 nM
CC50 (HT-29; HT-29): 543 nM
GI50 (LNCaP; LN-caP): 75.6 nM
TGI LN-caP (LNCaP; LN-caP): 3.87E−07 Molar
CC50 (LNCaP; LN-caP): 1270 nM
GI50 (IGROV-ET; IGROV-ET): 100 nM
TGI IGROV-ET (IGROV-ET; IGROV-ET): 2.40E−07 Molar
CC50 (IGROV-ET; IGROV-ET): 639 nM
GI50 (LoVo; LOVO): 89.2 nM
TGI LOVO (LoVo; LOVO): 1.72E−07 Molar
CC50 (LoVo; LOVO): 445 nM
GI50 (SK-MEL-28; MEL-28): 362 nM
TGI MEL-28 (SK-MEL-28; MEL-28): 8.73E−07 Molar
CC50 (SK-MEL-28; MEL-28): 1680 nM
GI50 (PANC-1; PANC-1): 1400 nM
TGI PANC-1 (PANC-1; PANC-1): 1.84E−06 Molar
CC50 (PANC-1; PANC-1): 1840 nM
GI50 (LoVo-Dox; LOVO-DOX): 70.1 nM
TGI LOVO-DOX (LoVo-Dox; LOVO-DOX): 1.20E−07 Molar
CC50 (LoVo-Dox; LOVO-DOX): 369 nM

C/C=C1\NC(=O)[C@H](Cc2ccccc2)NC(=O)[C@@H](C(C)C)NC(=O)[C@@H]([C@@H](C)CC)NC(=O)[C@H](NC(=O)[C@H](NC(=O)[C@H](CCCN)NC(=O)[C@H]2CCCN2C(=O)[C@H](NC(=O)[C@@H](NC(=O)[C@@H](NC(=O)[C@H](NC(=O)CC[C@@H](C)CC)C(C)C)[C@@H](C)OC(=O)C(F)(F)F)C(C)C)C(C)C)[C@@H](C)CC)[C@@H](C)OC(=O)[C@H](C(C)C)NC1=O [Compound 94, [Thr(OTfa)^12, 4(S)MeHex^14]-Kahalalide F]
GI50 (SK-BR-3; SRB): 226 nM
LC50 (SK-BR-3; SRB): 625 nM
TGI SK-BR-3 (SK-BR-3; SRB): 3.75E−07 Molar
GI50 (K-562; SRB): 1840 nM
TGI K-562 (K-562; SRB): 3.75E−06 Molar
CC50 (K-562; SRB): 6350 nM
GI50 (IGROV-1; SRB): 313 nM
LC50 (concentration causing 50% net cell killing) (IGROV-1; SRB): 3050 nM
TGI IGROV (IGROV-1; SRB): 6.11E−07 Molar
GI50 (DU-145; SRB): 718 nM
LC50 (concentration causing 50% net cell kill) (DU-145; SRB): 3180 nM
TGI DU-145 (DU-145; SRB): 1.51E−06 Molar
GI50 (HeLa-APL; SRB): 693 nM
TGI HELA-APL (HeLa-APL; SRB): 1.65E−06 Molar
CC50 (HeLa-APL; SRB): 3920 nM
TGI A-549 (A-549; SRB): 2.28E−06 Molar
GI50 (A-549; SRB): 1120 nM
CC50 (A-549; SRB): 4660 nM
GI50 (HeLa; SRB): 413 nM
TGI HELA (HeLa; SRB): 1.16E−06 Molar
CC50 (HeLa; SRB): 3020 nM
TGI HT-29 (HT-29; SRB): 3.43E−07 Molar
GI50 (HT-29; SRB): 163 nM
CC50 (HT-29; SRB): 1140 nM
TGI LN-caP (LNCaP; SRB): 4.92E−06 Molar
GI50 (LNCaP; SRB, read-out: GI50 LN-caP): 1650 nM
CC50 (LNCaP; SRB): 6350 nM
GI50 (IGROV-ET; SRB): 208 nM
TGI IGROV-ET (IGROV-ET; SRB): 4.00E−07 Molar
CC50 (IGROV-ET; SRB): 1580 nM
GI50 (LoVo; SRB): 168 nM
TGI LOVO (LoVo; SRB): 3.26E−07 Molar
CC50 (LoVo; SRB): 632 nM
GI50 (SK-MEL-28; SRB): 743 nM
TGI MEL-28 (SK-MEL-28; SRB): 1.50E−06 Molar
CC50 (SK-MEL-28; SRB): 3010 nM
GI50 (PANC-1; SRB): 2860 nM
TGI PANC-1 (PANC-1; SRB): 6.35E−06 Molar
CC50 (PANC-1; SRB): 6350 nM
GI50 (LoVo-Dox; SRB): 162 nM
TGI LOVO-DOX (LoVo-Dox; SRB): 3.55E−07 Molar
CC50 (LoVo-Dox; SRB): 1320 nM
